Where two headings read alike, the source gives them in different places.
How the values were obtained:
[1] = system: HCV 1b-Con1 replicon; assay: HCV 1b-Con1 replicon assay in the presence of 5% FBS (luciferase reporter); type: cell-based; details: Hepatitis C virus
[2] = system: HCV genotype 3a replicon; assay: HCV genotype 3a replicon assay; type: cell-based, Hepatitis C virus; details: Hepatitis C virus, read-out: EC50 (nM, in the absence of HP) 3a, absence of human plasma; Table 5
From the text: (§1) [drawing 14] employs a biphenyl linker between the imidazole moieties. See WO2008021927(BMS). The EC50 values of BMS-790052 against different HCV genotypes were shown by Nettles et al., “BMS-790052 is a First-in-class Potent Hepatitis C Virus (HCV) NS5A Inhibitor for Patients with Chronic HCV Infection: Results from a Proof-of-concept Study”, 59th Annual Meeting of the American Association for the Study of Liver Diseases (Oct. 31-Nov. 1, 2008, San Francisco, Calif.; www.natap.org/2008/AASLD/AASLD_06.htm). […] See also Gao et al., NATURE 465:96-100 (2010). The compounds in Table 1 use different linkers between the imidazole moieties. Table 1 depicts the EC50 values of these compounds when tested using respective replicon assays in the presence of 5% (v/v) fetal bovine serum (FBS).

[3] = system: HCV genotype 2b replicon; assay: HCV genotype 2b replicon assay; type: cell-based, Hepatitis C virus; details: Hepatitis C virus, absence of human plasma; Table 5; read-out: EC50 (nM, in the absence of HP) 2b
From the text: as §1

[4] = system: HCV genotype 1b replicon; assay: HCV genotype 1b replicon assay; type: cell-based, Hepatitis C virus; details: Hepatitis C virus
From the text: as §1
(§2) Table 2 compares compounds containing unsubstituted benzimidazole to those containing halo-substituted benzimidazole. Anti-viral activities were assessed using wild-type replicons (e.g., 1b WT or 1a WT) as well as replicons containing specific NS5A mutations (e.g., 1b L28T, 1b Y93H, 1a L31V, 1a Y93C, 1a M28V, or 1a Q30E) in the absence of FBS.
(§3) Table 3 compares compounds with different linkers between the benzimidazole moieties. Anti-viral activities were determined using 1a and 1b replicon assays. “HP” refers to human plasma. […] As compared to the phenyl linker

[5] = system: HCV genotype 4a replicon; assay: HCV genotype 4a replicon assay; type: cell-based, Hepatitis C virus; details: Hepatitis C virus, absence of human plasma; Table 5; read-out: EC50 (nM, in the absence of HP) 4a
From the text: as §1

[6] = system: HCV genotype 2a replicon; assay: HCV genotype 2a replicon assay; type: cell-based, Hepatitis C virus; details: Hepatitis C virus, absence of human plasma; Table 5; read-out: EC50 (nM, in the absence of HP) 2a
From the text: as §1

[7] = system: HCV genotype 1a replicon; assay: HCV genotype 1a replicon assay; type: cell-based, Hepatitis C virus; details: Hepatitis C virus
From the text: as §1, §2, §3

[8] = 40% human plasma, Table 5, read-out: EC50 (nM, in the presence of 40% HP) 1b
[9] = 40% human plasma, Table 5, read-out: EC50 (nM, in the presence of 40% HP) 1a
[10] = 5% FBS and 40% human plasma, Table 3, read-out: EC50 (nM, in the presence of 5% FBS and 40% HP) 1b
[11] = 5% FBS, Table 3, read-out: EC50 (nM, in the presence of 5% FBS) 1b
[12] = 5% FBS and 40% human plasma, Table 3, read-out: EC50 (nM, in the presence of 5% FBS and 40% HP) 1a
[13] = 5% FBS, Table 3, read-out: EC50 (nM, in the presence of 5% FBS) 1a

SMILES	EC50 [1] [nM]	EC50 [2] [nM]	EC50 [3] [nM]	EC50 [4, 8] [nM]	EC50 [5] [nM]	EC50 [6] [nM]	EC50 [7, 9] [nM]	EC50 [4, 10] [nM]	EC50 [4, 11] [nM]	EC50 [7, 12] [nM]	EC50 [7, 13] [nM]
COC(=O)N[C@H](C(=O)N1C(c2nc3cc([C@H]4CCC(c5ccc6[nH]c([C@@H]7C[C@@H]8CCC[C@@H]8N7C(=O)[C@@H](NC(=O)OC)C(C)C)nc6c5)N4c4cc(F)c(N5CCCCC5)c(F)c4)ccc3[nH]2)C[C@@H]2CCC[C@@H]21)C(C)C (some centres unmarked) [Example 4.18]	< 0.1	–	–	–	–	–	–	–	–	–	–
CC(C)(C)OC(=O)NCC(=O)N1CCC[C@H]1c1nc2cc([C@@H]3CC[C@@H](c4ccc5[nH]c([C@@H]6CCCN6C(=O)CNC(=O)OC(C)(C)C)nc5c4)N3c3ccc(N4CCCCC4)c(F)c3)ccc2[nH]1 [Example 3.14, tert-butyl {2-[(2S)-2-(5-{(2S,5S)-5-{2-[(2S)-1-{[(tert-butoxycarbonyl)amino]acetyl}pyrrolidin-2-yl]-1H-benzimidazol-5-yl}-1-[3-fluoro-4-(piperidin-1-yl)phenyl]pyrrolidin-2-yl}-1H-benzimidazol-2-yl)pyrrolidin-1-yl]-2-oxoethyl}carbamate]	> 10000	–	–	–	–	–	–	–	–	–	–
COC(=O)N[C@H](C(=O)N1CCC[C@H]1c1nc2cc([C@H]3CC[C@H](c4ccc5[nH]c([C@@H]6CCCN6C(=O)[C@@H](NC(=O)OC)C(C)C)nc5c4)N3c3ccc(N4CCCCC4)c(Cl)c3)ccc2[nH]1)C(C)C	–	≤ 0.05	≤ 0.05	0.2	≤ 0.05	≤ 0.05	0.2	–	–	–	–
COC(=O)N[C@H](C(=O)N1CCC[C@H]1c1nc2cc([C@H]3CC[C@H](c4ccc5[nH]c([C@@H]6CCCN6C(=O)[C@@H](NC(=O)OC)C(C)C)nc5c4)N3c3cc(F)c(N4CCCCC4)c(F)c3)ccc2[nH]1)C(C)C	–	≤ 0.05	≤ 0.05	0.2	≤ 0.05	≤ 0.05	0.1	–	–	–	–
COC(=O)N[C@H](C(=O)N1CCC[C@H]1c1nc2cc([C@H]3CC[C@H](c4ccc5[nH]c([C@@H]6CCCN6C(=O)[C@@H](NC(=O)OC)C(C)C)nc5c4)N3c3ccc(C(C)(C)C)cc3)ccc2[nH]1)C(C)C	–	≤ 0.05	≤ 0.05	0.3	≤ 0.05	0.2	0.1	–	–	–	–
COC(=O)N[C@H](C(=O)N1CCC[C@H]1c1nc2cc(C3CC[C@H](c4cc5nc([C@@H]6CCCN6C(=O)[C@@H](NC(=O)OC)C(C)C)[nH]c5cc4F)N3c3cc(F)c(N4CC(C)CC(C)C4)c(F)c3)c(F)cc2[nH]1)C(C)C (stereo partly drawn) [Example 2.16, methyl{(2S)-1-[(2S)-2-{5-[(5R)-1-[4-(3,5-dimethylpiperidin-1-yl)-3,5-difluorophenyl]-5-{6-fluoro-2-[(2S)-1-{(2S)-2-[(methoxycarbonyl)amino]-3-methylbutanoyl}pyrrolidin-2-yl]-1H-benzimidazol-5-yl}pyrrolidin-2-yl]-6-fluoro-1H-benzimidazol-2-yl}pyrrolidin-1-yl]-3-methyl-1-oxobutan-2-yl}carbamate]	< 0.1	–	–	–	–	–	–	–	–	–	–
COC(=O)N[C@H](C(=O)N1CCC[C@H]1c1nc2cc([C@H]3CC[C@H](c4ccc5[nH]c([C@@H]6CCCN6C(=O)[C@@H](NC(=O)OC)C(C)C)nc5c4)N3c3ccc(N4CCCCC4)c(F)c3)ccc2[nH]1)C(C)C	–	≤ 0.05	≤ 0.05	0.4	≤ 0.05	≤ 0.05	0.2	–	–	–	–
COC(=O)N[C@H](C(=O)N1CCC[C@H]1c1nc2cc(-c3ccc(-c4ccc5nc([C@@H]6CCCN6C(=O)[C@@H](NC(=O)OC)C(C)C)[nH]c5c4)nc3)ccc2[nH]1)C(C)C	–	–	–	–	–	–	–	< 3.2	< 0.32	< 3.2	< 0.32
COC(=O)N[C@H](C(=O)N1CCC[C@H]1c1nc2cc([C@H]3CC[C@H](c4ccc5[nH]c([C@@H]6CCCN6C(=O)[C@@H](NC(=O)OC)C(C)C)nc5c4)N3)ccc2[nH]1)C(C)C	–	–	–	–	–	–	–	> 4500	> 250	2500 to 8000	> 250

Reference: patent US9586978B2, “Anti-viral compounds” (AbbVie Inc., priority 2009, dated 2017)
